# Read-outs that look alike come from different tables or passages of the source.
# Assays:
# hDM21-188 (hDM2) [1] = biological target: T1, hDM21-188 (hDM2) (Homo sapiens, UniProt Q00987); assay: Direct fluorescence polarization binding of fluorescein-labeled ligands to hDM2
# hDM21-188 (hDM2) [2] = biological target: T1, hDM21-188 (hDM2); assay: Competition fluorescence polarization (cFP) assay, inhibition of p53AD^Flu·hDM2 complexation; format: binding
# CREB KID·CBP KIX complex = CREB KID·CBP KIX complex (Homo sapiens, UniProt Q92793); assay: Inhibition of formation of the unrelated CREB KID·CBP KIX complex; format: binding; details: specificity control
# [3] = Analytical ultracentrifugation, oligomeric state; format: physicochemical
# [4] = Circular dichroism: extent of 14-helix structure in aqueous buffer; format: physicochemical; details: initial CD comparison of β53-1D and β53-1
# carbonic anhydrase II = carbonic anhydrase II (Homo sapiens, UniProt P00918); details: read-out: Kd for carbonic anhydrase II
# IZN17 [5] = assay: Direct fluorescence polarization binding to gp41 model IZN17; design: species or system HIV; details: fluorescein-labeled ligand, direct FP; read-out: equilibrium affinity (Kd) for IZN17
# IZN17 [6] = assay: Competition fluorescence polarization, inhibition of C14wt^Flu·IZN17 complexation; design: species or system HIV; details: read-out: IC50, competition with C14wt^Flu for IZN17 binding
# [7] = tested on: HeLa-CD4-LTR-β-gal cells and CHO-SEC cells; assay: Cell-fusion assay (syncitia formation), gp41 mediated fusion; format: cell-based, HIV-1; details: read-out: EC50, inhibition of cell-cell-fusion
# calmodulin = calmodulin (Homo sapiens, UniProt P0DP23); details: read-out: Kd for calmodulin
# [8] = read-out: binding affinity (Kd) for hDM2
# [9] = read-out: IC50, inhibition of p53AD^Flu·hDM2 interaction
# [10] = concentrations between 80 and 400 μM
# [11] = fluorescein-labeled ligand, read-out: Kd, apparent equilibrium dissociation constant of complexes between fluorescein-labeled ligands and hDM2
# [12] = competition FP, unlabeled ligand
# T1 sequence (Q00987 1-188 limits assumed): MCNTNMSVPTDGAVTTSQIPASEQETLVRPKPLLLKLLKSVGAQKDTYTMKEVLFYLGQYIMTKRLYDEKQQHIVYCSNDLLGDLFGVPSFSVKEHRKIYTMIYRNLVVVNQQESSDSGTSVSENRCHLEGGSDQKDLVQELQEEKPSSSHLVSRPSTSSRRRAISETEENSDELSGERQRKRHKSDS
# Sequence of CREB KID·CBP KIX complex (Q92793 587-666 limits assumed, one chain of several): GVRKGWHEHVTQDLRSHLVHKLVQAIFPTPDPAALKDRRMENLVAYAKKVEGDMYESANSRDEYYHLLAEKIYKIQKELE
smiles,measurement,setting,value
CC[C@H](C)[C@@H](CC(=O)N[C@H](CC(=O)N[C@@H](CCC(=O)O)CC(=O)N[C@H](CC(=O)N[C@H](CC(=O)N[C@@H](CCCN)CC(=O)N[C@H](CC(=O)N[C@H](CC(=O)N[C@@H](CCC(=O)O)CC(=O)O)Cc1ccccc1)[C@@H](C)CC)Cc1c[nH]c2ccccc12)[C@@H](C)CC)CC(C)C)NC(=O)C[C@@H](N)CCCN [Hit 1],Kd,hDM21-188 (hDM2) [1]; [8],0.055 ± 0.008 µM
same,IC50,hDM21-188 (hDM2) [2]; [9],13 ± 1 µM
CC[C@H](C)[C@@H](CC(=O)N[C@H](CC(=O)N[C@@H](CCC(=O)O)CC(=O)N[C@H](CC(=O)N[C@H](CC(=O)N[C@@H](CCCN)CC(=O)N[C@H](CC(=O)N[C@H](CC(=O)N[C@@H](CCC(=O)O)CC(=O)O)Cc1ccccc1)C(C)C)Cc1c[nH]c2ccccc12)[C@@H](C)CC)CC(C)C)NC(=O)C[C@@H](N)CCCN [Hit 2],Kd,hDM21-188 (hDM2) [1]; [8],0.089 ± 0.02 µM
same,IC50,hDM21-188 (hDM2) [2]; [9],11 ± 1 µM
CC(C)C[C@@H](CC(=O)N[C@@H](CCC(=O)O)CC(=O)N[C@H](CC(=O)N[C@H](CC(=O)N[C@@H](CCCN)CC(=O)N[C@H](CC(=O)N[C@H](CC(=O)N[C@@H](CCC(=O)O)CC(=O)O)Cc1ccccc1)C(C)C)Cc1c[nH]c2ccccc12)C(C)C)NC(=O)C[C@@H](NC(=O)C[C@@H](N)CCCN)C(C)C [β53-1],inhibition of formation of CREB KID·CBP KIX complex,CREB KID·CBP KIX complex,failed to inhibit
same,oligomeric state,[3]; at concentrations exceeding 1 mM,monomeric
same,oligomeric state,[3]; [10],monomeric
same,Kd,hDM21-188 (hDM2) [1]; [11],0.37 ± 0.08 µM
same,IC50,hDM21-188 (hDM2) [2]; [12],94.5 ± 4.4 µM
same,mean residue ellipticity,[4],−8450.4 deg·cm^2·dmol^−1
CC(C)C[C@@H](CC(=O)N[C@H](CC(=O)N[C@@H](CCC(=O)O)CC(=O)N[C@H](CC(=O)N[C@H](CC(=O)N[C@@H](CCCN)CC(=O)N[C@H](CC(=O)N[C@H](CC(=O)N[C@@H](CCC(=O)O)CC(=O)O)C(C)C)Cc1ccccc1)C(C)C)Cc1c[nH]c2ccccc12)C(C)C)NC(=O)C[C@@H](N)CCCN [β53-3],oligomeric state,[3]; [10],monomeric
same,IC50,hDM21-188 (hDM2) [2],1590 ± 104 µM
CC(C)C[C@H](N)CC(=O)N[C@@H](CCC(=O)O)CC(=O)N[C@H](CC(=O)N[C@H](CC(=O)N[C@@H](CCCN)CC(=O)N[C@H](CC(=O)N[C@H](CC(=O)N[C@@H](CCC(=O)O)CC(=O)O)Cc1ccccc1)C(C)C)Cc1c[nH]c2ccccc12)C(C)C [β53-5],IC50,hDM21-188 (hDM2) [2]; [12],80.8 ± 3.2 µM
CC(C)[C@H](N)CC(=O)N[C@H](CC(=O)N[C@@H](CCCN)CC(=O)N[C@H](CC(=O)N[C@H](CC(=O)N[C@@H](CCC(=O)O)CC(=O)O)Cc1ccccc1)C(C)C)Cc1c[nH]c2ccccc12 [β53-6],IC50 fold better than β53-1 and β53-5,hDM21-188 (hDM2) [2],over 2 fold
same,IC50,hDM21-188 (hDM2) [2]; [12],36.2 ± 2.6 µM
"CC(C)[C@H](N)CC(=O)N[C@H](CC(=O)N[C@@H](CCC(=O)O)CC(=O)NCCC(=O)O)Cc1c[nH]c2ccccc12 [β53-7, reference compound]",IC50,hDM21-188 (hDM2) [2]; competition FP,> 1000 µM
CC(C)C[C@@H](CC(=O)N[C@@H](CCC(=O)O)CC(=O)N[C@H](CC(=O)N[C@H](CC(=O)N[C@@H](CCCN)CC(=O)N[C@H](CC(=O)N[C@H](CC(=O)N[C@@H](CCC(=O)O)CC(=O)O)Cc1ccccc1)C(C)C)Cc1c[nH]c2ccccc12)C(C)C)NC(=O)[C@H]1CCCC[C@@H]1NC(=O)C[C@@H](N)CCCN [β53-AC2],oligomeric state,[3],no evidence of oligomerization
same,Kd,hDM21-188 (hDM2) [1]; [11],0.21 ± 0.04 µM
same,IC50,hDM21-188 (hDM2) [2]; unlabeled ligand,15.5 ± 1 µM
CC(C)C[C@@H](CC(=O)N[C@@H](CCC(=O)O)CC(=O)N[C@H]1CCCC[C@@H]1C(=O)N[C@H](CC(=O)N[C@@H](CCCN)CC(=O)N[C@H](CC(=O)N[C@H](CC(=O)N[C@@H](CCC(=O)O)CC(=O)O)Cc1ccccc1)C(C)C)Cc1c[nH]c2ccccc12)NC(=O)C[C@@H](NC(=O)C[C@@H](N)CCCN)C(C)C [β53-AC5],oligomeric state,[3],"discrete higher-order oligomers, likely hexamers or heptamers"
same,Kd,hDM21-188 (hDM2) [1]; [11],0.21 ± 0.04 µM
same,IC50,hDM21-188 (hDM2) [2]; unlabeled ligand,60.3 ± 3.8 µM
CC(C)C[C@@H](CC(=O)N[C@@H](CCC(=O)O)CC(=O)N[C@H](CC(=O)N[C@H](CC(=O)N[C@@H](CCCN)CC(=O)N[C@H]1CCCC[C@@H]1C(=O)N[C@H](CC(=O)N[C@@H](CCC(=O)O)CC(=O)O)Cc1ccccc1)Cc1c[nH]c2ccccc12)C(C)C)NC(=O)C[C@@H](NC(=O)C[C@@H](N)CCCN)C(C)C [β53-AC8],oligomeric state,[3],could indicate a monomer-dimer equilibrium at low millimolar concentrations
same,Kd,hDM21-188 (hDM2) [1]; [11],0.22 ± 0.06 µM
same,IC50,hDM21-188 (hDM2) [2]; unlabeled ligand,10.5 ± 0.8 µM
CC(C)C[C@@H](CC(=O)N[C@@H](CCC(=O)O)CC(=O)N[C@H]1CCCC[C@@H]1C(=O)N[C@H](CC(=O)N[C@@H](CCCN)CC(=O)N[C@H]1CCCC[C@@H]1C(=O)N[C@H](CC(=O)N[C@@H](CCC(=O)O)CC(=O)O)Cc1ccccc1)Cc1c[nH]c2ccccc12)NC(=O)[C@H]1CCCC[C@@H]1NC(=O)C[C@@H](N)CCCN [β53-ACtrip],oligomeric state,[3],"discrete higher-order oligomers, likely hexamers or heptamers"
same,Kd,hDM21-188 (hDM2) [1]; [11],0.17 ± 0.05 µM
same,IC50,hDM21-188 (hDM2) [2]; unlabeled ligand,17.2 ± 1.3 µM
CC(C)[C@@H](CC(=O)N[C@H](CC(=O)N[C@@H](CCC(=O)O)CC(=O)O)Cc1ccccc1)NC(=O)C[C@H](CCCN)NC(=O)C[C@H](C)NC(=O)C[C@@H](NC(=O)C[C@H](CCC(=O)O)NC(=O)C[C@H](C)NC(=O)C[C@@H](NC(=O)C[C@@H](N)CCCN)C(C)C)C(C)C [β53-F9],IC50,hDM21-188 (hDM2) [2]; [12],1700 ± 163 µM
CC(C)C[C@@H](CC(=O)N[C@@H](CCC(=O)O)CC(=O)N[C@H](CC(=O)N[C@@H](C)CC(=O)N[C@@H](CCCN)CC(=O)N[C@H](CC(=O)N[C@@H](C)CC(=O)N[C@@H](CCC(=O)O)CC(=O)O)C(C)C)C(C)C)NC(=O)C[C@@H](NC(=O)C[C@@H](N)CCCN)C(C)C [β53-L3],IC50,hDM21-188 (hDM2) [2]; [12],> 7000 µM
CC(C)[C@@H](CC(=O)N[C@H](CC(=O)N[C@@H](CCCN)CC(=O)N[C@H](CC(=O)N[C@@H](C)CC(=O)N[C@@H](CCC(=O)O)CC(=O)O)C(C)C)Cc1c[nH]c2ccccc12)NC(=O)C[C@H](CCC(=O)O)NC(=O)C[C@H](C)NC(=O)C[C@@H](NC(=O)C[C@@H](N)CCCN)C(C)C [β53-W6],IC50 value fold higher than that of β53-1,hDM21-188 (hDM2) [2],2 fold
same,IC50,hDM21-188 (hDM2) [2]; [12],198 ± 10 µM
CC[C@H](C)[C@@H](CC(=O)N[C@@H](CCC(=O)O)CC(=O)N[C@H](CC(=O)N[C@H](CC(=O)N[C@@H](CCCN)CC(=O)N[C@H](CC(=O)N[C@H](CC(=O)N[C@@H](CCC(=O)O)CC(=O)O)Cc1c[nH]c2ccccc12)C(C)C)Cc1c[nH]c2ccccc12)C(C)C)NC(=O)C[C@@H](NC(=O)C[C@@H](N)CCCN)C(C)C [βWWI-1],Kd,carbonic anhydrase II,≥ 115 µM
same,Kd,IZN17 [5],0.75 ± 0.1 µM
same,IC50,IZN17 [6],4 ± 0.7 µM
same,EC50,[7],27 ± 2.5 µM
same,Kd,calmodulin,≥ 100 µM
CC[C@H](C)[C@@H](CC(=O)N[C@H](CC(=O)N[C@@H](CCC(=O)O)CC(=O)N[C@H](CC(=O)N[C@H](CC(=O)N[C@@H](CCCN)CC(=O)N[C@H](CC(=O)N[C@H](CC(=O)N[C@@H](CCC(=O)O)CC(=O)O)C(C)C)Cc1c[nH]c2ccccc12)C(C)C)Cc1c[nH]c2ccccc12)C(C)C)NC(=O)C[C@@H](N)CCCN [βWWI-2],Kd,IZN17 [5],1 ± 0.3 µM
same,IC50,IZN17 [6],4.6 ± 0.4 µM
same,EC50,[7],15 ± 1.6 µM
CC[C@H](C)[C@@H](CC(=O)N[C@H](CC(=O)N[C@@H](CCC(=O)O)CC(=O)O)C(C)C)NC(=O)C[C@H](CCCN)NC(=O)C[C@@H](NC(=O)C[C@H](Cc1c[nH]c2ccccc12)NC(=O)C[C@H](CCC(=O)O)NC(=O)C[C@@H](NC(=O)C[C@H](Cc1c[nH]c2ccccc12)NC(=O)C[C@@H](N)CCCN)C(C)C)C(C)C [βWWI-3],Kd,IZN17 [5],2.4 ± 0.7 µM
same,IC50,IZN17 [6],13 ± 4.1 µM
same,EC50,[7],13 ± 1.9 µM
CC[C@H](C)[C@@H](CC(=O)N[C@@H](CCC(=O)O)CC(=O)O)NC(=O)C[C@@H](NC(=O)C[C@H](CCCN)NC(=O)C[C@H](Cc1c[nH]c2ccccc12)NC(=O)C[C@@H](NC(=O)C[C@H](CCC(=O)O)NC(=O)C[C@H](Cc1c[nH]c2ccccc12)NC(=O)C[C@@H](NC(=O)C[C@@H](N)CCCN)C(C)C)C(C)C)C(C)C [βWWI-4],Kd,IZN17 [5],1.5 ± 0.4 µM
same,IC50,IZN17 [6],3.3 ± 1.4 µM
same,EC50,[7],5.3 ± 0.5 µM
"N[C@H](CC(=O)O)Cc1c[nH]c2ccccc12 [β^3W, β^3-homotyptophan, reference compound]",IC50,hDM21-188 (hDM2) [2]; competition FP,> 1000 µM

# Reference: US8008262B2, “β-peptides” (Yale University, priority 2004, dated 2011)
